# Results from the supplement of paper PMC10307832.
# Compound: CCCS(=O)(=O)Nc1ccc(F)c(C(=O)c2c[nH]c3ncc(-c4ccc(Cl)cc4)cc23)c1F [Vemurafenib] + C[C@]1(O)C[C@@H](c2nc(-c3ccc4ccc(-c5ccccc5)nc4c3)c3c(N)nccn32)C1 [Linsitinib] (partner 1 µM)
# Test: relative viability (nuclei count vs DMSO), 5 days (fraction); higher = more cells survive
# Conditions: first compound 0.03162 µM
# How it was run: (§1)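 Dosing by pin tool came one day after lung cancer cell lines were seeded in 1536-well plates, using either one drug or a fixed anchor-drug dose plus five library-drug doses (not always all listed) in √10 steps. After 5 days, nuclei were counted on 4× images. Relative viability is treated-well nuclei count divided by vehicle-well nuclei count, and values are medians of duplicate plates.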
row,Cell Line,relative viability
1,EBC-1,0.859
2,NCI-H2228,0.819
3,A549,0.584
4,IA-LM,0.537
5,HCC-78,0.627

# Same assay, conditions: first compound 0.1 µM
row,Cell Line,relative viability
1,NCI-H2126,0.699
2,EPLC-272H,0.824
3,NCI-H1755,0.889
4,NCI-H2023,0.552
5,NCI-H1975,0.962
6,NCI-H1299,0.958
7,NCI-H1437,0.959
8,HOP-62,1.01
9,HCC-44,0.67
10,BEN,0.921
11,LOU-NH91,0.535
12,NCI-H661,0.516
13,NCI-H1651,1.09
14,SW 1573,0.886
15,LK-2,0.525
16,NCI-H2405,0.776

row,Cell Line,relative viability
1,NCI-H1703,0.644
2,NCI-H1355,0.709
3,HCC-366,0.603
4,NCI-H1915,1
5,NCI-H838,1.01
6,A-427,1.1
7,NCI-H2009,1.03
8,ABC-1,0.753
9,Calu-6,0.981
10,NCI-H1563,1.11
11,CAL-12T,0.549
12,EBC-1,0.822
13,NCI-H2228,0.587
14,A549,0.444
15,IA-LM,0.53
16,HCC-78,0.458

# Same assay, conditions: first compound 0.3162 µM
row,Cell Line,relative viability
1,NCI-H2126,0.757
2,EPLC-272H,1.14
3,NCI-H1755,0.978
4,NCI-H2023,0.831
5,NCI-H1793,0.893
6,H3255,0.757
7,NCI-H1975,0.725
8,PC-14,0.922
9,NCI-H1299,0.83
10,NCI-H1437,0.918
11,HOP-62,0.94
12,HCC-44,0.709
13,BEN,0.683
14,NCI-H661,0.663
15,NCI-H1651,1.02
16,PC-3 [JPC-3],1.02
17,SW 1573,0.935

row,Cell Line,relative viability
1,LK-2,0.811
2,NCI-H1703,0.637
3,NCI-H1993,0.882
4,NCI-H1355,0.801
5,NCI-H1915,1.05
6,A-427,1.03
7,NCI-H2009,1.09
8,ABC-1,0.942
9,Calu-6,0.745
10,NCI-H1563,1.3
11,CAL-12T,1.02
12,EBC-1,0.891
13,NCI-H2228,0.773
14,A549,0.515
15,IA-LM,0.603
16,HCC-78,0.679

# Same assay, conditions: first compound 1 µM
row,Cell Line,relative viability
1,NCI-H2126,0.681
2,EPLC-272H,1.11
3,NCI-H1755,0.91
4,NCI-H2023,0.666
5,NCI-H1793,0.897
6,H3255,0.983
7,NCI-H1975,1.05
8,PC-14,0.995
9,NCI-H1299,0.951
10,NCI-H1437,0.871
11,HOP-62,0.841
12,HCC-44,0.716
13,BEN,0.724
14,LOU-NH91,1.01
15,NCI-H661,0.637
16,NCI-H1651,1.09
17,PC-3 [JPC-3],1.03
18,SW 1573,0.795
19,LK-2,0.417

row,Cell Line,relative viability
1,NCI-H2405,0.983
2,NCI-H1703,0.787
3,NCI-H1993,0.746
4,NCI-H1355,0.758
5,HCC-366,0.601
6,NCI-H1915,1.04
7,NCI-H838,1.14
8,A-427,1.15
9,NCI-H2009,1.06
10,ABC-1,0.853
11,Calu-6,0.927
12,NCI-H1563,1.25
13,CAL-12T,0.819
14,EBC-1,1.02
15,NCI-H2228,0.587
16,A549,0.567
17,IA-LM,0.554
18,HCC-78,0.502

# Compound: COc1cccc2cc(-c3nc([C@H]4CC[C@H](C(=O)O)CC4)n4ncnc(N)c34)[nH]c12 [OSI-027] + Nc1ncn([C@H]2C[C@H](O)[C@@H](CO)O2)c(=O)n1 [Decitabine] (partner 2 µM)
# Test: as above
# Conditions: first compound 0.01 µM
# How it was run: as §1
row,Cell Line,relative viability
1,NCI-H2126,0.558
2,EPLC-272H,0.324
3,NCI-H1755,0.75
4,NCI-H2023,0.202
5,NCI-H1650,0.454
6,NCI-H1793,0.457
7,NCI-H2342,0.793
8,H3255,0.736
9,NCI-H1975,0.392
10,PC-14,0.208
11,NCI-H1437,0.499
12,HOP-62,0.216
13,HCC-44,0.903
14,BEN,0.609
15,LOU-NH91,0.804
16,NCI-H661,0.521
17,NCI-H1651,0.629
18,PC-3 [JPC-3],0.769

row,Cell Line,relative viability
1,SW 1573,0.411
2,LK-2,0.207
3,NCI-H2405,0.688
4,NCI-H1648,0.477
5,NCI-H1993,0.53
6,ChaGo-K-1,0.518
7,NCI-H1355,0.329
8,HCC-366,0.345
9,NCI-H1915,0.25
10,NCI-H838,0.503
11,A-427,0.522
12,NCI-H2009,0.418
13,ABC-1,1.03
14,NCI-H2170,0.459
15,NCI-H522,0.705
16,A549,0.301
17,SW 900,0.438
18,HCC-78,0.77

# Same assay, conditions: first compound 0.03162 µM
row,Cell Line,relative viability
1,NCI-H2126,0.553
2,EPLC-272H,0.321
3,NCI-H1755,0.716
4,NCI-H2023,0.213
5,NCI-H1650,0.45
6,NCI-H1793,0.493
7,NCI-H2342,0.687
8,H3255,0.676
9,NCI-H1975,0.395
10,PC-14,0.278
11,NCI-H1437,0.614
12,HOP-62,0.231
